This note sets out measurements from US20250263376A1, “(E)-N-CINNAMOYLAMINOALKANOLS WITH MELANOGENESIS INHIBITORY ACTIVITY” (Uniwersytet Jagiellonski, priority 2024, published 2025).

One data set deals with S. typhimurium TA98. Put plainly: Ames microplate test, TA98. In kind it is cell-based, Salmonella typhimurium. On the procedure: Bacteria were grown overnight in growth medium.
A further data set concerns hepatocarcinoma HepG2. Put plainly: Safety, LDH test in HepG2. In kind it is cell-based. Particulars: 48 hours, vs Triton X-100. The protocol: (§1) In order to test the safety of the compounds, both normal human cells were used: keratinocytes (HaCaT), fibroblasts (BJ), primary melanocytes that occur in the skin, as well as human cancer cells: the hepatocarcinoma line HepG2 and the neuroblastoma line SH-SY5Y, which are considered a model for the assessment of hepatocytotoxicity and neurocytotoxicity. The concentrations of the tested compounds in the range of […] were used in the studies. The cell lines used in the research were purchased from the American Type Culture Collection (ATCC) and were cultured in media recommended by the manufacturer with the addition of FBS and antibiotics in an incubator ensuring appropriate culture conditions, i.e. humidity, temperature and CO2 concentration. Cells were seeded into multiwell plates and incubated with the test compounds for 48 hours. After this time, MTT and LDH tests were performed to assess cell viability. The MTT test is based on the ability to transform the substrate: [3-(4,5-dimethyl-2-thiazolyl)-2,5-diphenyl-2H-tetrazolium bromide into a colored product only by living cells. The absorbance at 570 nm, which corresponds to the absorption maximum for the product, is directly proportional to cell viability. The LDH test is based on testing the activity of the enzyme lactate dehydrogenase in the culture medium, which is released from cells as a result of damage to the cell membrane, e.g. as a result of cell death. Triton X-100 was used as a positive control in the test. The determination is colorimetric, the substrate is transformed by the released enzyme into a colored product, an increase in absorbance indicates a larger amount of the released enzyme, and thus confirms greater damage to cell membranes. Tables 7 and 8 present the results obtained, which correspond to the viability of cells incubated with the compounds in relation to the viability of cells constituting a control sample, i.e. incubated with the solvent (DMSO) at the same concentration as in the case of the groups tested in the MTT test or in relation to the results obtained for the Triton X-100 positive control in the LDH test. They indicate that the compounds are safe at the concentrations tested.

The test system of data set [1] is reconstructed human epidermis containing melanocytes MelanoDerm MEL-300-B. Put plainly: Melanogenesis inhibition in reconstructed human epidermis containing melanocytes (MelanoDerm). Particulars: 1.0% in 50% PEG (10 μL), 14 days, MTT. It counts as cell-based. The protocol: Melanogenesis Inhibition Studies in a Model of Reconstructed Human Epidermis Containing Melanocytes (MelanoDerm by Mattek).
The research was carried out on reconstructed human epidermis containing melanocytes MelanoDerm™ MEL-300-B from MatTek (Bratislava, Slovakia). The ratio of keratinocytes to melanocytes in the epidermis used is 10:1. Only medium purchased from the same manufacturer (EPI-100-NMM-113) was used to culture the epidermis during the experiments. Once the epidermis was obtained, it was transferred to 12-well plates containing 5 mL of medium/well. Plates were used to enable proper contact of the lower parts of the inserts with the substrate (so-called hanging-top plate). Solutions of the compounds were prepared immediately before their application. The solutions were applied to the inserts using a positive displacement pipette and then distributed using a sterile glass bulb headed Pasteur pipette. The application was repeated every 48 hours, a total of 7 applications were performed. Before the next application, each insert was rinsed with sterile DPBS and dried with a sterile cotton buds. The application was also accompanied by a change of the medium. […] The epidermis was cultured in an incubator ensuring appropriate humidity, temperature (37° C.) and CO2 concentration (5%).
The experiment was conducted for 14 days. After this time, the inserts were rinsed with DPBS and dried with a cotton swab. For the selected pool of inserts, tissue viability was assessed using the MTT (Thiazolyl Blue Tetrazolium bromide) test, the remaining ones were used to determine the amount of melanin. To assess viability, the inserts were transferred to 24-well plate containing 0.3 mL of DMEM medium with 1 mg/mL MTT and incubated for 3 hours in an incubator. The epidermis was then placed in 2 mL of isopropanol and the resulting formazan was extracted for 2 hours at room temperature. The absorbance of the samples was measured at 570 nm in a microplate reader and correlated with the absorbance of the control by the formula: % Viability=[OD (570 nm) for test compound/OD (570 nm) for control]×100. To determine the amount of melanin, the inserts were incubated in 5% sodium bicarbonate for 30 min, then dried and placed in 0.5 mL of Solvable™ reagent, which caused complete lysis of the epidermis. After heating at 95° C., the absorbance of the samples was measured at 405 nm in a microplate reader. On this basis, the reduction in the amount of melanin was calculated in relation to the control sample. The absorbance results were also correlated with a standard curve for synthetic melanin.

The test system of the next data set is fibroblasts (BJ). Kind of data set: Safety, LDH test in fibroblasts. It counts as cell-based. Particulars: 48 hours, vs Triton X-100. The protocol:
as §1

The test system of data set [2] is human reconstructed epidermis model EpiDerm. Put plainly: Extended skin irritation test in reconstructed human epidermis EpiDerm. It counts as cell-based. The conditions noted are these: 1.0% in 50% PEG (10 μL). The protocol: Extended Skin Irritation Tests on Reconstructed Human Epidermis-Exposure Time Extended to 7 Days.
In order to perform extended skin irritation (safety) tests on the reconstructed human epidermis, the exposure time to the tested compounds was extended to 2 and 7 days in the human reconstructed epidermis model EpiDerm™ from MatTek. The epidermis was cultured according to the manufacturer's recommendations, using appropriate multi-well plates and culture media. Solutions of the tested compounds were applied to the epidermis using a positive displacement pipette and distributed using a sterile glass bulb headed Pasteur pipette. […] The epidermis was cultured in an incubator ensuring appropriate humidity, temperature (37° C.) and CO2 concentration (5%). The medium was replaced daily. After an appropriate incubation time, i.e. 2 days or 7 days, the epidermis was rinsed with sterile DPBS and incubated with MTT (Thiazolyl Blue Tetrazolium bromide) solution at 37° C. for 3 hours. After this time, a purple color of formazan was observed, correlated with tissue viability. […] Moreover, in the medium collected after the first 24 hours of EpiDerm epidermis culture, the level of interleukin 1α (Il-1α), which is a mediator of inflammation, was determined. Its level correlates with the unfavorable (irritating) effect of the tested substances on the epidermis. The level of IL-1α was determined using the Cayman Elisa test.

The structures appear in SMILES notation.

As for `O=C(/C=C/c1ccccc1)NCCCCCO` [Compound A-133, (2E)-N-(5-hydroxypentyl)-3-phenylprop-2-enamide], the “Increase in the number of yellow wells compared to the reference level, TA98” value in the data set on S. typhimurium TA98 (0.5 mM, + S9) was found to be 0.50; in the data set on S. typhimurium TA98 (0.5 mM, without S9) it was 0.44; in the data set with S. typhimurium TA98 (1.0 mM, + S9) it was 0.67; with S. typhimurium TA98 (1.0 mM, without S9) it was 0.33; in the data set with S. typhimurium TA98 (2.0 mM, + S9) it was 1.00; in the data set with S. typhimurium TA98 (2.0 mM, without S9), 0.67. Moreover, the “LDH, Hepatocarcinoma HepG2” value is 5.31 percentage of positive control in the data set with hepatocarcinoma HepG2 (100 μM), 7.07 percentage of positive control with hepatocarcinoma HepG2 (150 μM), 9.65 percentage of positive control in the data set on hepatocarcinoma HepG2 (200 μM) and 16.13 percentage of positive control in the data set with hepatocarcinoma HepG2 (250 μM). Moreover, the “Viability [% control, mean ± SD]” value in data set [1] was 101.22 ± 6.52 % control. Further, the “LDH, Fibroblasts (BJ)” value was 5.00 percentage of positive control in the data set on fibroblasts (BJ) (100 μM), 4.47 percentage of positive control in the data set on fibroblasts (BJ) (150 μM), 14.72 percentage of positive control with fibroblasts (BJ) (200 μM) and 28.31 percentage of positive control in the data set with fibroblasts (BJ) (250 μM). Further, the “Viability [% of control, mean ± SD] 2 days” value in data set [2] is 107.19 ± 7.45 % of control. Further, in data set [2], the “Viability [% of control, mean ± SD] 7 days” value is listed as 107.26 ± 21.82 % of control. The “Il-1α in culture medium” value in data set [2] (medium after first 24 hours) was determined as 34.99 ± 1.17 pg/mL.
